Where two headings read alike, the source gives them in different places. *1 amine or outer side, *2 acyl side, *3 side chain or, on linkers, in order; H or OH if unused. Where a SMILES comes first, the peptide text is derived from it. Bridges are numbered along the chain shown (N, C = ends). Roman numbers before positions name the chains, in order. [ ]: non-standard residue; d: D form. Actinocin(9to1) = Cc1c2oc3c(C)ccc(C(=O)[*:1])c3nc-2c(C(=O)[*:2])c(N)c1=O; NMeV = CN[C@H](C(=O)O)C(C)C; Sar = CNCC(=O)O

Assay in all cases: Growth inhibition (MTT) assay, with or without MDR modulators
In series [1] the test system is MES-SA/Dx5 (Dx5) cells. The series is classed as cell-based, human. The procedure:
(§1) Cells and Tissue Culture. Details of the development and characterization of the human cell line MES-SA and its MDR variant MES-SA/Dx5 (D×5), which were derived from sarcoma elements of a uterine mixed Mullerian tumor, are described in Harker and Sikic (1985) Cancer Research 45:3810-3815. MES-SA/DxP5002 (DxP) cells were derived from Dx5.05 cells (D×5 cells selected and maintained at a DOX concentration of 0.5 μM) by step-wise selection in the presence of increasing DOX concentrations (from 40 nM up to 0.5 μM) and a constant PSC 833 concentration at 2 μM over a one-year period. Monolayer cultures of MES-SA cells and its variants were grown in McCoy's medium (Irvine Scientific, Santa Ana, Calif.) supplemented with 10% newborn calf serum (Gibco, Grand Island, N.Y.), 2 mM L-glutamine, and antibiotics(100 U/ml penicillin, 100 μg/ml streptomycin).
(§2) Growth Inhibition Assay. Approximately 8000 cells per well were seeded in 96 well plates and incubated with or without drugs for 72 hr at 37° C. in an atmosphere of 5% CO2. Growth inhibition was evaluated by the MTT colorimetric assay in triplicate or quadruplicate as previously described. The absorbance was measured with a ThermoMax microplate reader (Molecular Devices, Menlo Park, Calif.). The IC50 (drug concentration resulting in 50% inhibition of MTT dye formation, compared to controls) was determined directly from semi-logarithmic dose-response curves. The doubling times of MES-SA, D×5, and D×P were determined as previously described.
(§3) Reversal of MDR by Modulators. […] The modulation ratio was obtained by comparing IC50 s in the presence and absence of modulators.

Series [2] deals with MES-SA cells. The format is cell-based, human. The settings on record: for IC50: Homo sapiens, read-out: IC50 of drug-sensitive MES-SA cells (values in parenthesis). Here is the method:
as §1, §2, §3

For series [3], the system named is MES-SA/DxP5002 (DxP) cells. To be noted: for Fold resistance / Level of resistance of DxP cells to the cytotoxin compared with parental Dx5 (in words): DxP cells; for Dx5/DxP, fold of resistance difference in DxP cells compared with parental Dx5 cells: DxP vs Dx5. The procedure: Cells and Tissue Culture. […] Monolayer cultures of MES-SA cells and its variants were grown in McCoy's medium (Irvine Scientific, Santa Ana, Calif.) supplemented with 10% newborn calf serum (Gibco, Grand Island, N.Y.), 2 mM L-glutamine, and antibiotics(100 U/ml penicillin, 100 μg/ml streptomycin).
Growth Inhibition Assay. Approximately 8000 cells per well were seeded in 96 well plates and incubated with or without drugs for 72 hr at 37° C. in an atmosphere of 5% CO2. Growth inhibition was evaluated by the MTT colorimetric assay in triplicate or quadruplicate as previously described. The absorbance was measured with a ThermoMax microplate reader (Molecular Devices, Menlo Park, Calif.). […] The doubling times of MES-SA, D×5, and D×P were determined as previously described.
as §3

[4] abbreviates: no modulator, relative to MES-SA.
Where [5] appears, read: MES-SA cells, no modulator, 72 hr MTT.

One may read the IC50 as the concentration that gives 50% inhibition. As to `COc1cc(NS(C)(=O)=O)ccc1Nc1c2ccccc2nc2ccccc12` [Amsacrine], the “Fold resistance” value came to 26 fold in series [1] (setting [4]), 1 fold in series [2] (setting [5]) and 2 fold in series [3] (setting [4]). Besides, the IC50 in series [2] (MES-SA cells, 72 hr MTT) is 100 nM. In addition, the “Dx5/DxP, fold of resistance difference in DxP cells compared with parental Dx5 cells” value (shortened to “Dx5/DxP, fold of resistance difference”) in series [3] is given as 13 fold.

With `COc1cc2c(c(OC)c1OC)-c1ccc(OC)c(=O)cc1[C@@H](NC(C)=O)CC2` [Colchicine], in series [3], the “Level of resistance of DxP cells to the cytotoxin compared with parental Dx5 (in words)” value (“Level … compared with parental Dx5 (in words)” for short) is “high levels of resistance”.

On to `Cc1c2oc3c(C)ccc(C(=O)N[C@@H]4C(=O)N[C@H](C(C)C)C(=O)N5CCC[C@H]5C(=O)N(C)CC(=O)N(C)[C@@H](C(C)C)C(=O)O[C@@H]4C)c3nc-2c(C(=O)N[C@@H]2C(=O)N[C@H](C(C)C)C(=O)N3CCC[C@H]3C(=O)N(C)CC(=O)N(C)[C@@H](C(C)C)C(=O)O[C@@H]2C)c(N)c1=O` [D actinomycin, dactinomycin] (I: T[dV]P[Sar][NMeV] / II: T[dV]P[Sar][NMeV]; ester I:1-I:C, II:1-II:C; linker I:N-II:N via Actinocin(9to1)), for which the “Fold resistance” value is recorded as 183 fold in series [1] (setting [4]), 1 fold in series [2] (setting [5]) and 1 fold in series [3] (setting [4]). Besides, the concentration for half-maximal inhibition (IC50) in series [2] (MES-SA, 72 h) was determined as 0.3 nM. The “Level … compared with parental Dx5 (in words)” value in series [3] was “completely restored”. Also, the “Dx5/DxP, fold of resistance difference” value in series [3] is 183 fold.

For the compound `COc1cccc2c1C(=O)c1c(O)c3c(c(O)c1C2=O)C[C@@](O)(C(C)=O)C[C@@H]3O[C@H]1C[C@H](N)[C@H](O)[C@H](C)O1` [Daunorubicin], the “Fold resistance” value in series [1] (setting [4]) is listed as 75 fold; in series [2] (setting [5]), 1 fold; in series [3] (setting [4]) it was 25 fold. Besides, the 50% inhibitory concentration (IC50) in series [2] (MES-SA, 72 h) was found to be 20 nM. Besides, the “Level … compared with parental Dx5 (in words)” value in series [3] is “slightly decreased”. Besides, in series [3], the “Dx5/DxP, fold of resistance difference” value is on record as 3 fold.

On to `COc1cc([C@@H]2c3cc4c(cc3[C@@H](O[C@@H]3O[C@@H]5CO[C@@H](C)O[C@H]5[C@H](O)[C@H]3O)[C@H]3COC(=O)[C@H]23)OCO4)cc(OC)c1O` [Etoposide], for which the Fold resistance turned out to be 1 fold in series [1] (+2 μM PSC 833); 42 fold in series [1] (setting [4]); 1 fold in series [2] (MES-SA cells, +2 μM PSC 833); 1 fold in series [2] (setting [5]); 18 fold in series [3] (+2 μM PSC 833). Further, in series [2] (MES-SA cells, 72 hr MTT), the IC50 is 500 nM. For the same compound, the “Level … compared with parental Dx5 (in words)” value in series [3] is given as “moderately decreased resistance”. Also, the “Dx5/DxP, fold of resistance difference” value in series [3] is on record as 2 fold.

For the compound `CC(=O)O[C@H]1C(=O)[C@@]2(C)[C@H]([C@H](OC(=O)c3ccccc3)[C@]3(O)C[C@H](OC(=O)[C@H](O)[C@@H](NC(=O)c4ccccc4)c4ccccc4)C(C)=C1C3(C)C)[C@]1(OC(C)=O)CO[C@@H]1C[C@@H]2O` [Paclitaxel], the Fold resistance in series [1] (+2 μM PSC 833) is reported as 1 fold; in series [1] (+3 μM cyclosporin A), 13 fold; in series [1] (+6 μM Verapamil), 25 fold; in series [1] (setting [4]), 175 fold; in series [2] (MES-SA cells, +2 μM PSC 833) it was 0.3-1 fold; in series [2] (MES-SA cells, +3 μM cyclosporin A), 0.5-1 fold. Besides, the Fold resistance in series [2] (MES-SA cells, +6 μM Verapamil) is recorded as 0.3-1 fold; in series [2] (setting [5]), 1 fold; in series [3] (+2 μM PSC 833), 5 fold; in series [3] (+3 μM cyclosporin A), 38 fold; in series [3] (+6 μM Verapamil), 44 fold; in series [3] (setting [4]) it was 100 fold. In addition, the IC50 in series [2] (MES-SA cells, 72 hr MTT) came out at 1 nM. The “Level … compared with parental Dx5 (in words)” value in series [3] was “high levels of resistance”. Moreover, the “Dx5/DxP, fold of resistance difference” value in series [3] came out at 2 fold.

Turning to `COc1cc([C@@H]2c3cc4c(cc3[C@@H](O[C@@H]3O[C@@H]5CO[C@@H](c6cccs6)O[C@H]5[C@H](O)[C@H]3O)[C@H]3COC(=O)[C@H]23)OCO4)cc(OC)c1O` [Teniposide], the “Fold resistance” value came to 135 fold in series [1] (setting [4]), 1 fold in series [2] (setting [5]) and 53 fold in series [3] (setting [4]). For the same compound, the IC50 in series [2] (MES-SA cells, 72 hr MTT) is 100 nM. For the same compound, the “Level … compared with parental Dx5 (in words)” value in series [3] was “moderately decreased resistance”. Also, in series [3], the “Dx5/DxP, fold of resistance difference” value worked out at 3 fold.

Turning to `CC[C@]1(O)C[C@H]2CN(CCc3c([nH]c4ccccc34)[C@@](C(=O)OC)(c3cc4c(cc3OC)N(C=O)[C@H]3[C@@](O)(C(=O)OC)[C@H](OC(C)=O)[C@]5(CC)C=CCN6CC[C@]43[C@@H]65)C2)C1` [Vincristine], the Fold resistance in series [1] (+2 μM PSC 833) is recorded as 1 fold; in series [1] (+6 μM Verapamil) it was 7 fold; in series [1] (setting [4]), 199 fold; in series [2] (MES-SA cells, +2 μM PSC 833) it was 0.7 fold; in series [2] (MES-SA cells, +6 μM Verapamil) it was 0.3-1 fold; in series [2] (setting [5]) it was 1 fold. Moreover, the Fold resistance was 7 fold in series [3] (+2 μM PSC 833), 3 fold in series [3] (+6 μM Verapamil) and 8 fold in series [3] (setting [4]). Also, the IC50 in series [2] (MES-SA cells, 72 hr MTT) came out at 2 nM. For the same compound, the “Dx5/DxP, fold of resistance difference” value in series [3] turned out to be 25 fold.

On to `CCC1=C[C@@H]2CN(C1)Cc1c([nH]c3ccccc13)[C@@](C(=O)OC)(c1cc3c(cc1OC)N(C)[C@H]1[C@@](O)(C(=O)OC)[C@H](OC(C)=O)[C@]4(CC)C=CCN5CC[C@]31[C@@H]54)C2` [vinorelbine], for which the figures for the “Fold resistance” value in series [1] (setting [4]), in series [2] (setting [5]) and in series [3] (setting [4]) were 17 fold, 1 fold and 2 fold, respectively. Also, in series [2] (MES-SA cells, 72 hr MTT), the IC50 was determined as 60 nM. Moreover, in series [3], the “Dx5/DxP, fold of resistance difference” value is given as 9 fold.

The values above are taken from patent US5830697A, “P-glycoprotein mutant resistant to cyclosporin modulation” (The Board of Trustees of the Leland Stanford Junior …, priority 1997, dated 1998).
